Measured values reported in the supplement of paper PMC13207355.

How the values were obtained:
Details in all cases: exposure time: 72 h
E34 [1] = patient-derived glioblastoma stem cells of proneural subtype; test: surviving fraction (nuclei count normalised to DMSO); higher = more cells surviving (less toxic)
E21 [2] = patient-derived glioblastoma stem cells of mesenchymal subtype; test: as above
FT3469 [3] = normal neural stem cell line; test: as above
E13 [4] = patient-derived glioblastoma stem cells of classical subtype; test: as above
E31 [5] = patient-derived glioblastoma stem cells of proneural subtype; test: as above
E28 [6] = patient-derived glioblastoma stem cells of classical subtype; test: as above
E57 [7] = patient-derived glioblastoma stem cells of mesenchymal subtype; test: as above
E34 [8] = test: phenotypic distance (Euclidean, principal components) from DMSO controls (arbitrary units); higher = stronger morphological change
E21 [9] = test: as above
FT3469 [10] = test: as above
E13 [11] = test: as above
E31 [12] = test: as above
E28 [13] = test: as above
E57 [14] = test: as above
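Throughout, for phenotypic distance (Euclidean, principal components) from DMSO controls: cell Painting imaging in 384-well plates, CellProfiler features reduced to at least 20 principal components, Euclidean distance versus same-plate DMSO vehicle wells (0.1% v/v), median over six images per well.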
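Throughout, for surviving fraction (nuclei count normalised to DMSO): nuclei counted by high-content imaging of Hoechst-stained cells in laminin-coated 384-well plates, relative to 0.1% DMSO vehicle wells, with staurosporine as cell-death control.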

CCOC(=O)OC(C)OC1=C(C(=O)Nc2ccccn2)N(C)S(=O)(=O)c2ccccc21 (stereo not drawn) [Ampiroxicam]
Details	phenotypic distance	surviving fraction
E13 [4], 4.1 nM	–	0.882
E13 [4], 12.3 nM	–	0.885
E13 [4], 37 nM	–	1.02
E13 [4], 111.1 nM	–	0.926
E13 [4], 333.3 nM	–	1.08
E13 [4], 1000 nM	–	0.895
E13 [4], 3000 nM	–	0.916
E13 [11], 4.1 nM	0.946	–
E13 [11], 12.3 nM	0.661	–
E13 [11], 37 nM	0.814	–
E13 [11], 111.1 nM	0.688	–
E13 [11], 333.3 nM	0.952	–
E13 [11], 1000 nM	0.72	–
E13 [11], 3000 nM	0.529	–
E21 [2], 4.1 nM	–	0.957
E21 [2], 12.3 nM	–	0.928
E21 [2], 37 nM	–	0.953
E21 [2], 111.1 nM	–	0.847
E21 [2], 333.3 nM	–	1.09
E21 [2], 1000 nM	–	0.883
E21 [2], 3000 nM	–	1.01
E21 [9], 4.1 nM	0.574	–
E21 [9], 12.3 nM	0.804	–
E21 [9], 37 nM	0.922	–
E21 [9], 111.1 nM	0.659	–
E21 [9], 333.3 nM	0.834	–
E21 [9], 1000 nM	0.819	–
E21 [9], 3000 nM	0.71	–
E28 [6], 4.1 nM	–	0.815
E28 [6], 12.3 nM	–	1.1
E28 [6], 37 nM	–	0.896
E28 [6], 111.1 nM	–	0.884
E28 [6], 333.3 nM	–	0.939
E28 [6], 1000 nM	–	1.08
E28 [6], 3000 nM	–	0.871
E28 [13], 4.1 nM	1.28	–
E28 [13], 12.3 nM	0.987	–
E28 [13], 37 nM	0.538	–
E28 [13], 111.1 nM	0.744	–
E28 [13], 333.3 nM	0.444	–
E28 [13], 1000 nM	0.516	–
E28 [13], 3000 nM	0.705	–
E31 [5], 4.1 nM	–	0.83
E31 [5], 12.3 nM	–	0.849
E31 [5], 37 nM	–	0.967
E31 [5], 111.1 nM	–	1
E31 [5], 333.3 nM	–	0.856
E31 [5], 1000 nM	–	1.02
E31 [5], 3000 nM	–	1.08
E31 [12], 4.1 nM	0.739	–
E31 [12], 12.3 nM	0.998	–
E31 [12], 37 nM	0.78	–
E31 [12], 111.1 nM	0.734	–
E31 [12], 333.3 nM	0.689	–
E31 [12], 1000 nM	0.71	–
E31 [12], 3000 nM	0.801	–
E34 [1], 4.1 nM	–	1.14
E34 [1], 12.3 nM	–	0.946
E34 [1], 37 nM	–	0.986
E34 [1], 111.1 nM	–	1.1
E34 [1], 333.3 nM	–	1.01
E34 [1], 1000 nM	–	0.932
E34 [1], 3000 nM	–	0.984
E34 [8], 4.1 nM	0.789	–
E34 [8], 12.3 nM	0.855	–
E34 [8], 37 nM	0.505	–
E34 [8], 111.1 nM	0.762	–
E34 [8], 333.3 nM	0.521	–
E34 [8], 1000 nM	0.542	–
E34 [8], 3000 nM	0.73	–
E57 [7], 4.1 nM	–	0.955
E57 [7], 12.3 nM	–	1.02
E57 [7], 37 nM	–	0.962
E57 [7], 111.1 nM	–	1.02
E57 [7], 333.3 nM	–	0.943
E57 [7], 1000 nM	–	1.06
E57 [7], 3000 nM	–	1.08
E57 [14], 4.1 nM	0.796	–
E57 [14], 12.3 nM	0.83	–
E57 [14], 37 nM	0.552	–
E57 [14], 111.1 nM	0.54	–
E57 [14], 333.3 nM	0.507	–
E57 [14], 1000 nM	1.03	–
E57 [14], 3000 nM	0.908	–
FT3469 [3], 4.1 nM	–	0.768
FT3469 [3], 12.3 nM	–	1.05
FT3469 [3], 37 nM	–	1.02
FT3469 [3], 111.1 nM	–	1.05
FT3469 [3], 333.3 nM	–	1.04
FT3469 [3], 1000 nM	–	1.08
FT3469 [3], 3000 nM	–	0.95
FT3469 [10], 4.1 nM	0.638	–
FT3469 [10], 12.3 nM	0.959	–
FT3469 [10], 37 nM	0.379	–
FT3469 [10], 111.1 nM	1.16	–
FT3469 [10], 333.3 nM	0.73	–
FT3469 [10], 1000 nM	1.03	–
FT3469 [10], 3000 nM	0.924	–
